Assay results taken from US20220265694A1, “COMPOSITIONS AND METHODS FOR TREATING AN INFECTION” (CMPD LICENSING, LLC, priority 2016, published 2022).
Where two headings read alike, the source gives them in different places.

Assays:
Pseudomonas aeruginosa = experiment: Expected efficacy of antibiotic agents; details: expected efficacy against Pseudomonas aeruginosa; Gram: neg
Neisseria gonorrhoeae = experiment: Expected efficacy of antibiotic agents; details: expected efficacy against Neisseria gonorrhoeae; Gram: neg
[1] = system: Corynebacterium urealyticum; experiment: Expected efficacy of antibiotic agents; details: expected efficacy against Corynebacterium urealyticum; Gram: pos
Klebsiella oxytoca = experiment: Expected efficacy of antibiotic agents; details: expected efficacy against Klebsiella oxytoca; Gram: neg
Vibrio cholerae = experiment: Expected efficacy of antibiotic agents; details: expected efficacy against Vibrio cholerae; Gram: neg
Acinetobacter baumannii = experiment: Expected efficacy of antibiotic agents; details: expected efficacy against Acinetobacter baumannii; Gram: neg
Streptococcus pyogenes = experiment: Expected efficacy of antibiotic agents; details: expected efficacy against Streptococcus pyogenes; Gram: pos
[2] = system: Klebsiella (Calymmatobacterium); experiment: Expected efficacy of antibiotic agents; details: expected efficacy against Klebsiella (Calymmatobacterium); Gram: neg
Bordetella pertussis = experiment: Expected efficacy of antibiotic agents; details: expected efficacy against Bordetella pertussis; Gram: neg
Shigella boydii = experiment: Expected efficacy of antibiotic agents; details: expected efficacy against Shigella boydii; Gram: neg
Enterococcus faecalis = experiment: Expected efficacy of antibiotic agents; details: expected efficacy against Enterococcus faecalis; Gram: pos
Shigella sonnei = experiment: Expected efficacy of antibiotic agents; details: expected efficacy against Shigella sonnei; Gram: neg
Campylobacter jejuni = experiment: Expected efficacy of antibiotic agents; details: expected efficacy against Campylobacter jejuni; Gram: neg
[3] = system: Staphylococcus epidermidis; experiment: Expected efficacy of antibiotic agents; details: expected efficacy against Staphylococcus epidermidis; Gram: pos
Haemophilus ducreyi = experiment: Expected efficacy of antibiotic agents; details: expected efficacy against Haemophilus ducreyi; Gram: neg
Morganella morganii = experiment: Expected efficacy of antibiotic agents; details: expected efficacy against Morganella morganii; Gram: neg
Enterobacter cloacae = experiment: Expected efficacy of antibiotic agents; details: expected efficacy against Enterobacter cloacae; Gram: neg
[4] = system: Methicillin resistant staph aureus (MRSA); experiment: Expected efficacy of antibiotic agents; details: expected efficacy against Methicillin resistant staph aureus (MRSA); Gram: pos
Mycoplasma pneumoniae = experiment: Expected efficacy of antibiotic agents; details: expected efficacy against Mycoplasma pneumoniae; Gram: n/a
Clostridium difficile = experiment: Expected efficacy of antibiotic agents; details: expected efficacy against Clostridium difficile; Gram: anaer
Shigella dysenteriae = experiment: Expected efficacy of antibiotic agents; details: expected efficacy against Shigella dysenteriae; Gram: neg
Citrobacter diversus = experiment: Expected efficacy of antibiotic agents; details: expected efficacy against Citrobacter diversus; Gram: neg
Providencia rettgeri = experiment: Expected efficacy of antibiotic agents; details: expected efficacy against Providencia rettgeri; Gram: neg
Proteus mirabilis = experiment: Expected efficacy of antibiotic agents; details: expected efficacy against Proteus mirabilis; Gram: neg
Haemophilus influenzae = experiment: Expected efficacy of antibiotic agents; details: expected efficacy against Haemophilus influenzae; Gram: neg
[5] = system: Viridans group streptococci; experiment: Expected efficacy of antibiotic agents; details: expected efficacy against Viridans group streptococci; Gram: pos
Moraxella catarrhalis = experiment: Expected efficacy of antibiotic agents; details: expected efficacy against Moraxella catarrhalis; Gram: neg
Streptococcus agalactiae = experiment: Expected efficacy of antibiotic agents; details: expected efficacy against Streptococcus agalactiae; Gram: pos
Enterobacter sakazakii = experiment: Expected efficacy of antibiotic agents; details: expected efficacy against Enterobacter sakazakii; Gram: neg
Neisseria meningitidis = experiment: Expected efficacy of antibiotic agents; details: expected efficacy against Neisseria meningitidis; Gram: neg
Corynebacterium jeikeium = experiment: Expected efficacy of antibiotic agents; details: expected efficacy against Corynebacterium jeikeium; Gram: pos
Enterobacter aerogenes = experiment: Expected efficacy of antibiotic agents; details: expected efficacy against Enterobacter aerogenes; Gram: neg
Chlamydia pneumoniae = experiment: Expected efficacy of antibiotic agents; details: expected efficacy against Chlamydia pneumoniae; Gram: n/a
Streptococcus pneumoniae = experiment: Expected efficacy of antibiotic agents; details: expected efficacy against Streptococcus pneumoniae; Gram: pos
Klebsiella pneumoniae = experiment: Expected efficacy of antibiotic agents; details: expected efficacy against Klebsiella pneumoniae; Gram: neg
[6] = system: Haemophilus parainfluenzae; experiment: Expected efficacy of antibiotic agents; details: expected efficacy against Haemophilus parainfluenzae; Gram: neg
Proteus vulgaris = experiment: Expected efficacy of antibiotic agents; details: expected efficacy against Proteus vulgaris; Gram: neg
Citrobacter freundii = experiment: Expected efficacy of antibiotic agents; details: expected efficacy against Citrobacter freundii; Gram: neg
Salmonella typhi = experiment: Expected efficacy of antibiotic agents; details: expected efficacy against Salmonella typhi; Gram: neg

CO/N=C(\C(=O)N[C@@H]1C(=O)N2C(C(=O)O)=C(CSc3nc(=O)c(=O)[nH]n3C)CS[C@H]12)c1csc(N)n1 [Ceftriaxone]
Efficacy (Pseudomonas aeruginosa): no | Efficacy (Neisseria gonorrhoeae): yes | Efficacy [1]: no | Efficacy (Klebsiella oxytoca): yes | Efficacy (Vibrio cholerae): no | Efficacy (Acinetobacter baumannii): no | Efficacy (Streptococcus pyogenes): yes | Efficacy [2]: yes | Efficacy (Bordetella pertussis): no | Efficacy (Shigella boydii): yes | Efficacy (Enterococcus faecalis): no | Efficacy (Shigella sonnei): yes | Efficacy (Campylobacter jejuni): no | Efficacy [3]: yes | Efficacy (Haemophilus ducreyi): yes | Efficacy (Morganella morganii): yes | Efficacy (Enterobacter cloacae): yes | Efficacy [4]: no | Efficacy (Mycoplasma pneumoniae): no | Efficacy (Clostridium difficile): no | Efficacy (Shigella dysenteriae): yes | Efficacy (Legionella pneumophila; expected efficacy against Legionella pneumophila, Gram: neg): no | Efficacy (Citrobacter diversus): yes | Efficacy (Providencia rettgeri): yes | Efficacy (Proteus mirabilis): yes | Efficacy (Haemophilus influenzae): yes | Efficacy [5]: yes | Efficacy (Moraxella catarrhalis): yes | Efficacy (Streptococcus agalactiae): yes | Efficacy (Enterobacter sakazakii): yes | Efficacy (Neisseria meningitidis): yes | Efficacy (Corynebacterium jeikeium): no | Efficacy (Chlamydia psittaci; expected efficacy against Chlamydia psittaci, Gram: n/a): no | Efficacy (Enterobacter aerogenes): yes | Efficacy (Chlamydia pneumoniae): no | Efficacy (Streptococcus pneumoniae): yes | Efficacy (Klebsiella pneumoniae): yes | Efficacy [6]: yes | Efficacy (Rickettsiae; expected efficacy against Rickettsiae, Gram: neg): no | Efficacy (Clostridium perfringens; expected efficacy against Clostridium perfringens, Gram: anaer): yes | Efficacy (Proteus vulgaris): yes | Efficacy (Citrobacter freundii): yes | Efficacy (Salmonella typhi): yes

CN[C@H](CC(C)C)C(=O)N[C@H]1C(=O)N[C@@H](CC(N)=O)C(=O)N[C@H]2C(=O)N[C@H]3C(=O)N[C@H](C(=O)N[C@H](C(=O)O)c4cc(O)cc(O)c4-c4cc3ccc4O)[C@H](O)c3ccc(c(Cl)c3)Oc3cc2cc(c3O[C@@H]2O[C@H](CO)[C@@H](O)[C@H](O)[C@H]2O[C@H]2C[C@](C)(N)[C@H](O)[C@H](C)O2)Oc2ccc(cc2Cl)[C@H]1O [Vancomycin]
Efficacy (Pseudomonas aeruginosa): no | Efficacy (Neisseria gonorrhoeae): no | Efficacy [1]: yes | Efficacy (Klebsiella oxytoca): no | Efficacy (Vibrio cholerae): no | Efficacy (Acinetobacter baumannii): no | Efficacy (Streptococcus pyogenes): yes | Efficacy [2]: no | Efficacy (Bordetella pertussis): no | Efficacy (Shigella boydii): no | Efficacy (Enterococcus faecalis): yes | Efficacy (Shigella sonnei): no | Efficacy (Campylobacter jejuni): no | Efficacy [3]: yes | Efficacy (Haemophilus ducreyi): no | Efficacy (Morganella morganii): no | Efficacy (Enterobacter cloacae): no | Efficacy [4]: yes | Efficacy (Mycoplasma pneumoniae): no | Efficacy (Clostridium difficile): yes | Efficacy (Shigella dysenteriae): no | Efficacy (Legionella pneumophila): no | Efficacy (Citrobacter diversus): no | Efficacy (Providencia rettgeri): no | Efficacy (Proteus mirabilis): no | Efficacy (Haemophilus influenzae): no | Efficacy [5]: yes | Efficacy (Moraxella catarrhalis): no | Efficacy (Streptococcus agalactiae): yes | Efficacy (Enterobacter sakazakii): no | Efficacy (Neisseria meningitidis): no | Efficacy (Corynebacterium jeikeium): yes | Efficacy (Chlamydia psittaci): no | Efficacy (Enterobacter aerogenes): no | Efficacy (Chlamydia pneumoniae): no | Efficacy (Streptococcus pneumoniae): yes | Efficacy (Klebsiella pneumoniae): no | Efficacy [6]: no | Efficacy (Rickettsiae): no | Efficacy (Clostridium perfringens): no | Efficacy (Proteus vulgaris): no | Efficacy (Citrobacter freundii): no | Efficacy (Salmonella typhi): no
